One series deals with Spodoptera frugiperda. The series is described as follows: Spodoptera frugiperda spray test. The format is in vivo. The conditions noted are these: after 7 days, maize leaf discs. The method in brief:
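Efficacy in % was scored at 7 days against armyworm caterpillars placed on dried, compound-sprayed Zea mays leaf discs. Compound was dissolved in acetone/dimethylformamide and diluted in water with 1000 ppm alkylaryl polyglycol ether. 100% means all caterpillars were killed.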

The subject of the next series is Ctenocephalides felis. The series is described as follows: Ctenocephalides felis oral test. It counts as in vivo. As to conditions: application rate 100 ppm in citrated cattle blood, after 2 days, adult cat fleas. As for the experimental part: Ctenocephalides felis—Oral Test Solvent: dimethyl sulphoxide To produce a suitable active ingredient formulation, 10 mg of active ingredient are mixed with 0.5 ml of dimethyl sulphoxide. Dilution with citrated cattle blood gives the desired concentration. About 20 unfed adult cat fleas (Ctenocephalides felis) are placed into a chamber which is closed at the top and bottom with gauze. A metal cylinder whose bottom end is closed with parafilm is placed onto the chamber. The cylinder contains the blood/active ingredient formulation, which can be imbibed by the fleas through the parafilm membrane. After 2 days, the kill in % is determined. 100% means that all of the fleas have been killed; 0% means that none of the fleas have been killed.

Series [1] in a line: log P by HPLC on reversed-phase column (C 18), EEC Directive 79/831 Annex V.A8. The format is physicochemical. The conditions noted are these: 55° C.; for LOGP_HCOOH: log P (HCOOH), acidic range pH 2.7, 0.1% aqueous formic acid and acetonitrile, reversed-phase column (C 18); for LOGP_NEUTRAL: log P, neutral range, HPLC on reversed-phase column (C 18). Here is the method:
Temperature: 55° C. […] Called log P (HCOOH) in the table. […] Called log P (neutral) in the table.

Another series concerns Phaedon cochleariae. Kind of series: Phaedon cochleariae spray test. It counts as in vivo. The conditions noted are these: after 7 days, Chinese cabbage leaf discs. The method in brief:
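Larval kill read at day 7 as percent, where 100% means every larva dead and 0% none; larvae were placed on dried Brassica pekinensis leaf discs previously sprayed with the formulation (acetone/dimethylformamide solvent, alkylaryl polyglycol ether emulsifier, water).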

A further series has as its system Lucilia cuprina. Kind of series: Lucilia cuprina test. The format is in vivo. As to conditions: application rate 100 ppm, after 2 days, L1 larvae. As for the experimental part: Lucilia cuprina Test Solvent: dimethyl sulphoxide To produce a suitable active ingredient formulation, 10 mg of active ingredient are mixed with 0.5 ml of dimethyl sulphoxide, and the concentrate is diluted with water to the desired concentration. About 20 L1 larvae of the Australian sheep blowfly (Lucilia cuprina) are transferred into a test vessel containing minced horsemeat and the active ingredient formulation of the desired concentration. After 2 days, the kill in % is determined. 100% means that all the larvae have been killed; 0% means that no larvae have been killed.

Regarding `CC(C)C(=O)Nc1cc(-c2ccc(OC(F)(F)F)cc2)cc(C(=O)NCc2c(F)cc(C#N)cc2F)n1` [Example I-070], the “efficacy (caterpillars killed)” value in the series on Spodoptera frugiperda (application rate 500 g/ha) came to 83%. The “efficacy (kill in %)” value in the series with Ctenocephalides felis is recorded as 98%. For the same compound, in series [1], the LOGP_HCOOH stood at 4.31 and the LOGP_NEUTRAL is 4.15. For the same compound, the “efficacy (beetle larvae killed)” value in the series on Phaedon cochleariae (application rate 500 g/ha) stood at 100%. Further, the “efficacy (kill in %)” value in the series on Lucilia cuprina is listed as 100%.

In the case of `N#Cc1ccc(CNC(=O)c2cc(-c3ccc(OC(F)(F)F)cc3)cc(NC(=O)C3CC3)n2)cc1F` [Example I-080], the figures for the “efficacy (caterpillars killed)” value in the series with Spodoptera frugiperda (application rate 100 g/ha) and with Spodoptera frugiperda (application rate 500 g/ha) were 83% and 100%, respectively. The “efficacy (kill in %)” value in the series on Ctenocephalides felis and in the series on Lucilia cuprina was 100% each time. For the same compound, the LOGP_HCOOH in series [1] is 4.01. For the same compound, in series [1], the LOGP_NEUTRAL was found to be 3.87. Moreover, the “efficacy (beetle larvae killed)” value in the series with Phaedon cochleariae (application rate 100 g/ha) and in the series on Phaedon cochleariae (application rate 500 g/ha) was 100% each time.

For the compound `CC(C)C(=O)Nc1cc(-c2ccc(OC(F)(F)F)cc2)cc(C(=O)NCc2ccc(C#N)cc2F)n1` [Example I-081], the “efficacy (caterpillars killed)” value with Spodoptera frugiperda (application rate 100 g/ha) and in the series on Spodoptera frugiperda (application rate 500 g/ha) was 100% in each case. The “efficacy (kill in %)” value with Ctenocephalides felis and in the series with Lucilia cuprina was 100% each time. In series [1], this compound displayed an LOGP_HCOOH of 4.22. Also, the LOGP_NEUTRAL in series [1] turned out to be 4.09. Besides, the “efficacy (beetle larvae killed)” value was determined as 83% in the series on Phaedon cochleariae (application rate 100 g/ha) and 100% in the series on Phaedon cochleariae (application rate 500 g/ha).

With `N#Cc1cc(F)c(CNC(=O)c2cc(-c3ccc(OC(F)(F)F)cc3)cc(NC(=O)C3CC3)n2)c(F)c1` [Example I-082], the “efficacy (caterpillars killed)” value with Spodoptera frugiperda (application rate 100 g/ha) and in the series on Spodoptera frugiperda (application rate 500 g/ha) was 100% each time. The “efficacy (kill in %)” value in the series with Ctenocephalides felis and in the series with Lucilia cuprina was 100% throughout. This compound registered an LOGP_HCOOH in series [1] of 4.12. The compound also had an LOGP_NEUTRAL in series [1] of 4.01. Further, the “efficacy (beetle larvae killed)” value in the series on Phaedon cochleariae (application rate 100 g/ha) and in the series with Phaedon cochleariae (application rate 500 g/ha) was 100% in each case.

As for `O=C(NCc1ccc(-c2ncon2)cc1)c1cc(-c2ccc(SC(F)(F)F)cc2)cc(NC(=O)C2CC2)n1` [Example I-093], in the series with Spodoptera frugiperda (application rate 500 g/ha), the “efficacy (caterpillars killed)” value is listed as 100%. The “efficacy (kill in %)” value with Ctenocephalides felis came out at 95%; with Lucilia cuprina it was 100%. Also, in series [1], the LOGP_HCOOH is on record as 4.28. For the same compound, the LOGP_NEUTRAL in series [1] is 4.15. Besides, the “efficacy (beetle larvae killed)” value in the series on Phaedon cochleariae (application rate 100 g/ha) and in the series with Phaedon cochleariae (application rate 500 g/ha) was 100% each time.

For `O=C(NCc1ccc(-c2ncon2)cc1)c1cc(-c2ccc(OC(F)(F)F)cc2)cc(NC(=O)C2CC2)n1` [Example I-094], in the series on Spodoptera frugiperda (application rate 500 g/ha), the “efficacy (caterpillars killed)” value turned out to be 100%. The “efficacy (kill in %)” value with Ctenocephalides felis and with Lucilia cuprina was 100% each time. The same compound registered an LOGP_HCOOH in series [1] of 3.96. Further, the LOGP_NEUTRAL in series [1] was 3.84. In addition, the “efficacy (beetle larvae killed)” value with Phaedon cochleariae (application rate 100 g/ha) and with Phaedon cochleariae (application rate 500 g/ha) was 100% in each case.

With `N#Cc1ccc(CNC(=O)c2cc(-c3ccc(S(=O)(=O)C(F)(F)F)cc3)cc(NC(=O)C3CC3)n2)cc1` [Example I-096], the “efficacy (caterpillars killed)” value with Spodoptera frugiperda (application rate 100 g/ha) and in the series on Spodoptera frugiperda (application rate 500 g/ha) was 100% each time. In addition, the “efficacy (kill in %)” value in the series on Ctenocephalides felis and with Lucilia cuprina was 100% in each case. The LOGP_NEUTRAL in series [1] worked out at 3.47. For the same compound, the “efficacy (beetle larvae killed)” value with Phaedon cochleariae (application rate 100 g/ha) and with Phaedon cochleariae (application rate 500 g/ha) was 100% each time.

Consider `Cc1cc(-c2cc(NC(=O)C3CC3)nc(C(=O)NCc3ccc(C#N)cc3)c2)ccc1OC(F)(F)F` [Example I-098], for which the “efficacy (caterpillars killed)” value in the series with Spodoptera frugiperda (application rate 100 g/ha) and with Spodoptera frugiperda (application rate 500 g/ha) was 100% throughout. Further, the “efficacy (kill in %)” value in the series on Ctenocephalides felis and in the series with Lucilia cuprina was 100% in each case. The LOGP_HCOOH in series [1] is on record as 4.21. The LOGP_NEUTRAL in series [1] amounted to 4.11. Moreover, the “efficacy (beetle larvae killed)” value with Phaedon cochleariae (application rate 100 g/ha) and in the series on Phaedon cochleariae (application rate 500 g/ha) was 100% in each case.

The record behind these values is patent US20190053492A1, “SUBSTITUTED PYRIDINE COMPOUNDS AS PESTICIDES” (Bayer CropScience Aktiengesellschaft, priority 2016, published 2019).
